Consider seven molecules from patent US20040116297A1, “Use of polyprenol and its derivatives for facilitating growth of plants” (priority 2001, published 2004).

One test relates to corn. Put plainly: Effect on growth of corn. The following applies: for Early plant height / Fresh weight / Tiller number: corn seeds immersed 2 hrs at 100 ppm, after 60 days; for Rate of increase of early plant height / Rate of increase of fresh weight / Rate of increase of tiller number: corn, 100 ppm, vs control. It counts as in vivo. The protocol: [Worded in the source for another target; used here, by the source, with some conditions changed.] (§1) Then, the treated seeds were dried for 24 hrs at 25° C. Round pots of 25 cm in diameter (7 L capacity) were filled with soil for horticulture, and 50 pots (2 seeds per pot) were sown. After 60 days at about 25° C., the crop growth was evaluated by rate of emergence and early plant height. […] As a control, bean seeds which were not immersed in the polyprenol preparation were used.

Another test concerns red pepper. Put plainly: Effect on growth of red pepper. The class given is in vivo. Conditions: 100 ppm. The protocol:
[Worded in the source for another target; used here, by the source, with some conditions changed.] as §1

The test system of another test is bean. Put plainly: Effect on growth of bean. The class given is in vivo. As for the experimental part: 100 g of bean seeds were immersed in a 100 ml solution containing the polyprenol preparation formulated in Example 3 at a concentration of 100 ppm, for 1 hr. Then, the treated seeds were dried for 24 hrs at 25° C. Round pots of 25 cm in diameter (7 L capacity) were filled with soil for horticulture, and 50 pots (2 seeds per pot) were sown. After 60 days at about 25° C., the crop growth was evaluated by rate of emergence and early plant height. The test was repeated 3 times, and the average values are represented in Table 7. As a control, bean seeds which were not immersed in the polyprenol preparation were used.
In example 4, the compound having chloride group instead of hydroxyl group can be synthesized. The compound was evaluated on effect on crop growth. 100 g of bean seeds were immersed in a 100 ml solution containing the polyprenol preparation formulated in Example 4 at a concentration of 100 ppm, for 1 hr. Then, the treated seeds were dried for 24 hrs. Round pots of 25 cm in diameter (7 L capacity) were filled with soil for horticulture, and 50 pots (2 seeds per pot) were sown. After 60 days, the crop growth was evaluated. The test was repeated 3 times, and the average values are represented in Table 14. As a control, bean seeds which were not immersed in the polyprenol preparation were used.
100 g of bean seeds were immersed in a 100 ml solution containing the polyprenol preparation formulated in Example 5 at a concentration of 100 ppm, for 1 hr. Then, the treated seeds were dried for 24 hrs. Round pots of 25 cm in diameter (7 L capacity) were filled with soil for horticulture, and 50 pots (2 seeds per pot) were sown. After 60 days, the crop growth was evaluated. The test was repeated 3 times, and the average values are represented in Table 16. As a control, bean seeds which were not immersed in the polyprenol preparation were used.

For the next test, the system named is rice. The following applies: depending on the plant breeding; cited from earlier work.
The test system of another test is cabbage. Conditions: cited from earlier work.
A further test relates to radish. Conditions: cited from earlier work.
[1] abbreviates: foliage treatment after growing for 20 days.
Where [2] appears, read: bean seeds immersed 1 hr at 100 ppm, after 60 days.

Turning to “polyprenyl ethyl carbonate [Example 6-6]”, in the test on corn, the Early plant height was 109.6 cm, the Fresh weight is 61.3 g, the Tiller number is listed as 8.4 and the “Rate of increase of early plant height” value is given as 0.9%. Also, in the test with corn, the “Rate of increase of fresh weight” value was determined as 17.8% and the “Rate of increase of tiller number” value worked out at 2.4%.

With “polyprepyl dimethyl sulfonium bromide [Example 6-7]”, in the test on corn, the Early plant height worked out at 109.5 cm, the Fresh weight is given as 70.1 g, the Tiller number worked out at 9.2 and the “Rate of increase of early plant height” value is on record as 0.8%. In the test with corn, the “Rate of increase of fresh weight” value is given as 34.8% and the “Rate of increase of tiller number” value is 12.1%.

On to Polyprenyl Methyl Ether [Example 6-4], for which, in the test on corn, the Early plant height is 110.1 cm, the Fresh weight turned out to be 60.3 g, the Tiller number is recorded as 8.7 and the “Rate of increase of early plant height” value is 1.3%. Further, in the test with corn, the “Rate of increase of fresh weight” value is recorded as 15.9% and the “Rate of increase of tiller number” value stood at 6.0%.

In the test with red pepper (setting [1]), “Polyprenol of Formula I, in which m is 18 [Example 4]” had an Early plant length of 70.5 cm, a Flower number of 8.4 and a Trunk diameter of 8.5 mm. Also, in the test on red pepper (vs control), the “Rate of increase of early plant length” value stood at 11.7%, the “Rate of increase of flower number” value came to 10.5% and the “Rate of increase of trunk diameter” value is 1.2%. In the test on bean (setting [2]), the Early plant height was 68.2 cm, the No. of pods turned out to be 35.4 and the Rate of emergence is reported as 55.7%. Also, in the test on bean (bean, 100 ppm, summary statement), the “Increase of all factors tested (early plant height, rate of emergence, pod number)” value is listed as “more than 7%”. In the test with bean (bean, 100 ppm, vs control), the “Rate of increase of No. of pods” value was 17.2%, the “Rate of increase of early plant height” value amounted to 7.74% and the “Rate of increase of rate of emergence” value is recorded as 7.32%.

For the molecule `CCCCCCCCCCCCCCCCCCCCCCCCCCCCCCO` [tricontanol], the Increase of yield in the test on rice is 14.8-41%; in the test with cabbage, 83%; with radish, 108.4%.

Regarding Polyprenyl Stearate [Example 6-3], in the test on corn, the Early plant height came out at 109.1 cm, the Fresh weight is 68.0 g, the Tiller number is on record as 8.6 and the “Rate of increase of early plant height” value is recorded as 0.4%. Moreover, in the test on corn, the “Rate of increase of fresh weight” value amounted to 30.7% and the “Rate of increase of tiller number” value was 4.8%.

As for Polyprenyl Methyl Sulfide [Example 6-5], in the test with corn, the Early plant height was 108.9 cm, the Fresh weight is listed as 65.7 g, the Tiller number came to 8.5 and the “Rate of increase of early plant height” value stood at 0.2%. In addition, in the test with corn, the “Rate of increase of fresh weight” value is reported as 26.3% and the “Rate of increase of tiller number” value is 3.6%.
